Results reported in article PMC8658889, “Seriniquinones as Therapeutic Leads for Treatment of BRAF and NRAS Mutant Melanomas” (Molecules, 2021).
pIC50: −log10 of the molar value.

Columns and labels:
[1] = test system: 501mel; assay: MTT cytotoxicity assay; assay type: cell-based, Human; settings: for pIC50: Homo sapiens, 501mel, 72 h treatment, MTT
From the text: (§1) Human cell lines were used throughout this program. SK-MEL-19 (melanoma BRAF^V600E, NRAS^WT), SK-MEL-28 (melanoma BRAF^V600E, NRAS^WT), SK-MEL-147 (melanoma BRAF^WT, NRAS^Q61R), MRC-5 (fibroblasts), and primary fibroblast (FDH) were kindly provided by Professor Glaucia Santelli (University of São Paulo, Brazil). MCF7 (breast adenocarcinoma, ATCC HTB-22), and HCT-116 (colorectal carcinoma, ATCC 247) cells were obtained from American Type Culture Collection (ATCC) and deposited in the Cell Bank of Rio de Janeiro, Brazil. WM293A (metastatic melanoma BRAF^V600D, NRAS^WT), 501mel (metastatic melanoma BRAF^V600E; NRAS^G12D), and MM200 (melanoma BRAF^V600E, NRAS^WT) were kindly provided by Professor Sharon Prince, University of Cape Town, South Africa. All human melanoma and breast cell lines were cultivated with Dulbecco’s Modified Eagle Medium: Nutrient Mixture F-12 (Thermo Fisher Scientific, San Jose, CA, USA). MM200 and HCT-116 were maintained with Roswell Park Memorial Institute (RPMI) medium (Thermo Fisher Scientific, San Jose, CA, USA). Unless stated otherwise, media was supplemented with 10% fetal bovine serum (FBS) and 1% penicillin-streptomycin (Thermo Fisher Scientific, San Jose, CA, USA). Cells were incubated with 5% CO2 at 37 °C. When required, cells were detached from flask using trypsin-EDTA 0.05% (Thermo Fisher Scientific, San Jose, CA, USA).
(§2) Cytotoxic activity was evaluated by the transformation of 3-(4,5-dimethylthiazol-2-yl)-2,5-diphenyltetrazolium bromide (MTT; Thermo Fisher Scientific, San Jose, CA, USA) into formazan by viable cells. Cells were plated in a 96-well plate (1 × 10^4 cells/well) and, 24 h later, exposed to serial dilutions of the test compounds (from 0.00032 to 5.0 µM) for 24, 48, and 72 h. For each analysis, negative controls received 0.5% DMSO and positive control was delivered by doxorubicin (DOX; 0.05 to 10.0 µM). At the end of the incubation periods, the medium was replaced with fresh medium containing 0.5 mg/mL of MTT and supernatant was removed 3 h later. The plates were dried at 50 °C for 30 min and formazan was solubilized in DMSO (150 µL/well) for the absorbance measure at 570 nm on a plate reader (Thermo Fisher Scientific, San Jose, CA, USA). IC50 values (half-maximal inhibitory concentration) along with 95% CI (confidence intervals) were calculated by non-linear regression using GraphPad Prism 8.0 software (GraphPad Software, Inc., San Diego, CA, USA).

[2] = test system: FDH; assay: MTT cytotoxicity assay; assay type: cell-based, Human; settings: Homo sapiens, Fibroblast, 72 h, FDH primary fibroblasts, 72 h treatment
From the text: as §1, §2

[3] = test system: HCT-116; assay: MTT cytotoxicity assay; assay type: cell-based, Human; settings: for pIC50: Homo sapiens, HCT-116, 72 h treatment, MTT
From the text: as §1, §2

[4] = test system: MCF7; assay: MTT cytotoxicity assay; assay type: cell-based, Human; settings: for pIC50: Homo sapiens, MCF7, 72 h treatment, MTT
From the text: as §1, §2

[5] = test system: MM200; assay: MTT cytotoxicity assay; assay type: cell-based, Human; settings: for pIC50: Homo sapiens, MM200, 72 h treatment, MTT
From the text: as §1, §2

[6] = test system: SK-MEL-147; assay: MTT cytotoxicity assay; assay type: cell-based, Human; settings: for pIC50: Homo sapiens
From the text: as §1, §2

[7] = test system: SK-MEL-19; assay: MTT cytotoxicity assay; assay type: cell-based, Human; settings: for pIC50: Homo sapiens, SK-MEL19, SK-MEL-19, 72 h treatment, MTT
From the text: as §1, §2

[8] = test system: SK-MEL-28; assay: MTT cytotoxicity assay; assay type: cell-based, Human; settings: for pIC50: Homo sapiens
From the text: as §1, §2

[9] = test system: WM293A; assay: MTT cytotoxicity assay; assay type: cell-based, Human; settings: for pIC50: Homo sapiens, WM293A, 72 h treatment, MTT
From the text: as §1, §2

[10] = test system: MRC-5; assay: MTT cytotoxicity assay; settings: Homo sapiens, MRC5, 72 h
[11] = test system: melanoma cells; assay: MTT cytotoxicity assay, melanoma panel; assay type: cell-based, Human; settings: SK-Mel cells versus non-tumor cell lines
From the text: as §1, §2

[12] = 501mel versus FDH, 72-h IC50 ratio
[13] = 501mel versus MRC-5, 72-h IC50 ratio
[14] = HCT-116 versus FDH, 72-h IC50 ratio
[15] = HCT-116 versus MRC-5, 72-h IC50 ratio
[16] = MCF7 versus FDH, 72-h IC50 ratio
[17] = MCF7 versus MRC-5, 72-h IC50 ratio
[18] = MM200 versus FDH, 72-h IC50 ratio
[19] = MM200 versus MRC-5, 72-h IC50 ratio
[20] = SK-MEL-147, 72 h, SK-MEL-147, 72 h treatment, MTT
[21] = SK-MEL-147, SK-MEL-147, 24h treatment, 1h pre-treated with 30 nM bafilomycin A1
[22] = SK-MEL-147, SK-MEL-147, 24h treatment, 1h pre-treated with 20 µM Z-VAD-FMK
[23] = SK-MEL-147, SK-MEL-147, 24h treatment, no pre-treatment (Table S4)
[24] = SK-MEL-147 versus FDH, 72-h IC50 ratio
[25] = SK-MEL-147 versus MRC-5, 72-h IC50 ratio
[26] = SK-MEL-19 versus FDH, 72-h IC50 ratio
[27] = SK-MEL-19 versus MRC-5, 72-h IC50 ratio
[28] = SK-MEL-28, 72 h, SK-MEL-28, 72 h treatment, MTT
[29] = SK-MEL-28, SK-MEL-28, 24h treatment, 1h pre-treated with 30 nM bafilomycin A1
[30] = SK-MEL-28, SK-MEL-28, 24h treatment, 1h pre-treated with 20 µM Z-VAD-FMK
[31] = SK-MEL-28, SK-MEL-28, 24h treatment, no pre-treatment (Table S4)
[32] = SK-MEL-28 versus FDH, 72-h IC50 ratio
[33] = SK-MEL-28 versus MRC-5, 72-h IC50 ratio
[34] = WM293A versus FDH, 72-h IC50 ratio
[35] = WM293A versus MRC-5, 72-h IC50 ratio
[36] = MRC-5 non-tumor fibroblasts, 72 h treatment, MTT

Structure (SMILES)	pIC50 [1]	pIC50 [2]	Selectivity Index (SI) [3, 14]	Selectivity Index (SI) [3, 15]	pIC50 [3]	pIC50 [4]	Selectivity Index (SI) [4, 16]	Selectivity Index (SI) [4, 17]	Selectivity Index (SI) [5, 18]	Selectivity Index (SI) [5, 19]	pIC50 [6, 20]	Selectivity Index (SI) [6, 24]	Selectivity Index (SI) [6, 25]	pIC50 [7]	Selectivity Index (SI) [7, 26]	Selectivity Index (SI) [7, 27]	pIC50 [8, 28]	Selectivity Index (SI) [8, 32]	Selectivity Index (SI) [8, 33]	pIC50 [9]	also measured
COc1cccc2c1C(=O)c1c(O)c3c(c(O)c1C2=O)C[C@@](O)(C(=O)CO)C[C@@H]3O[C@H]1C[C@H](N)[C@H](O)[C@H](C)O1 [DOX, doxorubicin, reference compound]	6.59	6.11	5.2	0.3	6.82	6.25	1.4	0.1	7.8	0.5	6.74	4.3	0.3	6.41	2.0	0.1	5.91	0.6	0.04	7.22	Selectivity Index (SI) [1, 12]: 3.0; Selectivity Index (SI) [1, 13]: 0.2; pIC50 [5]: 7.00; pIC50 ([6]; SK-MEL-147, 24 h, SK-MEL-147, 24h treatment, MTT): 6.10; pIC50 ([6]; SK-MEL-147, 48 h, SK-MEL-147, 48h treatment, MTT): 6.32; pIC50 [6, 21]: 5.61; pIC50 [6, 22]: 5.73; pIC50 [6, 23]: 6.10; pIC50 ([8]; SK-MEL-28, 24 h, SK-MEL-28, 24h treatment, MTT): 5.86; pIC50 ([8]; SK-MEL-28, 48 h, SK-MEL-28, 48h treatment, MTT): 5.68; pIC50 [8, 29]: 6.48; pIC50 [8, 30]: 5.94; pIC50 [8, 31]: 6.23; Selectivity Index (SI) [9, 34]: 13.0; Selectivity Index (SI) [9, 35]: 0.9; pIC50 [10]: 7.30
CO[C@H]1C[C@@H]2CC[C@@H](C)[C@@](O)(O2)C(=O)C(=O)N2CCCC[C@H]2C(=O)O[C@H]([C@H](C)C[C@@H]2CC[C@@H](O)[C@H](OC)C2)CC(=O)[C@H](C)/C=C(\C)[C@@H](O)[C@@H](OC)C(=O)[C@H](C)C[C@H](C)/C=C/C=C/C=C/1C [RAPAMYCIN, rapamycin, reference compound]																					pIC50 [6, 21]: 4.41; pIC50 [6, 22]: 4.64; pIC50 [6, 23]: 4.76; pIC50 [8, 29]: 4.81; pIC50 [8, 30]: 4.50; pIC50 [8, 31]: 4.75
O=C(O)CCc1ccc2c(=O)c3sc4c(=O)c5ccccc5c(=O)c4c3c(=O)c2c1 [SQ3]	6.70	5.46	3.4	1.4	5.99	5.72	1.8	0.8	2.4	1.0	6.59	13.5	5.5	6.96	31.8	13.0	6.62	14.6	6.0	5.82	Selectivity Index (SI) [1, 12]: 17.5; Selectivity Index (SI) [1, 13]: 7.2; pIC50 ([5]; 72 h): 5.84; Selectivity Index (SI) [9, 34]: 2.3; Selectivity Index (SI) [9, 35]: 1.0; selectivity indices to SK-Mel cells in relation to non-tumor cell lines [11]: ≥ twofold; pIC50 [10, 36]: 5.84
NCCCCCCNC(=O)CCc1ccc2c(=O)c3sc4c(=O)c5ccccc5c(=O)c4c3c(=O)c2c1 [SQ4]	< 5.30	6.00	1.0	2.4	5.99	6.00	1.0	2.5	0.9	2.1	6.40	2.5	6.1	6.49	3.2	7.7	6.72	5.3	12.9	5.76	pIC50 ([5]; 72 h): 5.94; Selectivity Index (SI) [9, 34]: 0.6; Selectivity Index (SI) [9, 35]: 1.4; selectivity indices to SK-Mel cells in relation to non-tumor cell lines [11]: ≥ twofold; pIC50 [10, 36]: 5.61
